Values quoted from earlier work in patent US20030092754A1, “External preparation for skin diseases containing nitroimidazole” (priority 1999, published 2003).

Experiments:
delayed immune reaction = conditions: intraperitoneal administration
anti-TBA antibody titer = conditions: rabbits, intraperitoneal administration
granuloma formation = conditions: mice, oral administration
[1] = tested on: swelling of the ears induced by dinitrofluorobenzene; conditions: sensitized mice, intraperitoneal administration

| Structure (SMILES) | anti-Trichomonas activity (Trichomonas) | delayed immune reaction to intravenous injection of ovine erythrocytes (delayed immune reaction) | increases in anti-TBA antibody titer to TBA vaccine (anti-TBA antibody titer) | formation of granuloma by eggs of Schistosoma mansoni (granuloma formation) | antimicrobial activity against Entamoeba histolytica (Entamoeba histolytica) | swelling of the ears induced by dinitrofluorobenzene [1] | action on leukocyte migration (leukocyte migration) |
| --- | --- | --- | --- | --- | --- | --- | --- |
| Cc1ncc([N+](=O)[O-])n1CCO [metronidazole, 2-(2-methyl-5-nitroimidazol-1-yl)ethanol] | potent anti-Trichomonas activity | inhibits a delayed immune reaction | significantly inhibits | inhibited | strong antimicrobial activity | inhibit swelling of the ears | inhibitory action on leukocyte migration |
| CCS(=O)(=O)CCn1c([N+](=O)[O-])cnc1C [tinidazole, 1-(2-ethylsulfonylethyl)-2-methyl-5-nitroimidazole] | primarily has anti-Trichomonas activity | tends to inhibit delayed immune reaction | – | – | – | – | clearly exhibits inhibitory action of leukocyte migration |
